Test results: patent publication US5929039A, “Method for treating cardiac dysfunction and pharmaceutical compositions useful therefor” (Baker Medical Research Institute, priority 1993, dated 1999)
Where two headings read alike, the source gives them in different places.

Experiments:
[1] = tested on: in situ perfused rat hearts; conditions: for Reperfusion-induced arrhythmias VF % incidence / Reperfusion-induced arrhythmias VT % incidence: control 83; for arrhythmias occurring during the ischaemic phase: at the higher concentrations
Procedure: (§1) A model of in situ perfused rat hearts subjected to 20 minutes coronary artery occlusion to induce ischaemia, followed by reperfusion was used to investigate reperfusion-induced arrhythmias.
(§2) Rats (250-300 g) were anaesthetised (pentobarbitone 60 mg/kg, I.P.) and heparinised (200 U/rat I.V.) The thorax was then opened and a metal cannula (ID 1 mm) inserted and tied into the ascending aorta, to commence Langendorff perfusion in situ (31). The interval from opening the chest to commencing heart perfusion was between 50 and 70 seconds. The perfusate was Krebs buffer, with coronary flow controlled by a Ismatac peristaltic pump at a rate of 5 ml/g heart weight/min for the non-ischaemic perfusion. At this flow rate the coronary perfusion pressure was between 32-38 mmHg, measured by pressure transducer (Gould Statham model p23) connected to the sidearm of the perfusion line. Following aortic cancellation, pulmonary vessels were tied off. In some preparations, ventricular pressure was measured by inserting a Millar micro-tip transducer catheter into the left ventricular cavity via the apex. All parameters--coronary perfusion pressure, ventricular pressure, and epicardial ECG, were constantly recorded on a Grass model 7 polygraph. Two hearts were perfused and simultaneously studied.
(§3) A silk suture (4.0) was positioned loosely around the left coronary artery 2-3 mm from its origin. Two silk releasing rings were placed around the suture for subsequent release of occlusion. Successful occlusion of the artery, inducing regional ischaemia, was indicated by increases in coronary perfusion pressure of at least 30%. Perfusion pressure was adjusted to non-ischaemic perfusion levels during the ischaemic period.
(§4) Drugs were added to the perfusion via a Harvard Model 22 pump. The drug flow was less than 1% of perfusion flow to ensure constant perfusate parameters. Unless mentioned otherwise, the drugs were present 10 minutes before, and during the entire ischaemic and reperfusion periods.
(§5) Heart preparations were allowed to stabilise for at least 20 minutes prior to commencing studies. Following 10 minute drug incubation, the left coronary artery was ligated to induce local ischaemia, for a period of 20 minutes. At the end of this ischaemic period, the ligature was released and hearts perfused at pre-ischaemic flow for a period of 5 minutes. Ventricular arrhythmias, occurring during ischaemia or during the first 2 minutes of reperfusion were defined according to the Lambeth Conventions (32).
Incidence of arrhythmias was analysed using a .chi.^2 test, with n≥8 for each group.

[2] = tested on: inositol phosphate accumulation in heart tissue; test: Inositol phosphate accumulation in healthy (normoxic) heart tissue; set-up: species or system rat
Procedure: (§6) Adult male sprague dawley rats 250-300 g were used. Where indicated, rats were treated with reserpine (5 mg/kg I.P. for 18 hrs prior to killing) to deplete endogenous noradrenaline stores.. Rats were heparinized 1 U/g I.P. 30 minutes prior to killing by decapitation. Hearts were rapidly excised and immediately chilled in ice-cold saline. Under ice-cold solution, hearts were cannulated via the ascending aorta as described by Langendorff and perfused retrogradely at a rate of 5 ml/min with HEPES-buffered Krebs solution equilibrated with 5%CO2 -95%O2 at 37° C. Initial perfusion was in a non-recirculating manner to remove internal blood. Hearts were allowed to warm up gradually and, when free of internal blood, transferred to a 37° C. water-jacketed organ bath containing carbogenated Krebs medium, and perfusion continued in a recirculating manner. Following a 15 minute equilibration period, hearts were labelled with [^3 H]-inositol, 2 μCi/ml for 2 h. Hearts were monitored throughout the labelling period for strong rhythmic beating.
(§7) Inositol phosphates were extracted from ventricle samples in 3.5 ml ice-cold 5% trichloroacetic acid (TCA), 2.5 mM EDTA, 5 mM phytate solution, as described previously (21). Briefly, ventricles were homogenised with two 10 second passes of a "Polytron" homogenizer separated by 15 second periods on ice. Samples were homogenised further using a Potter-Elvejheim homogeniser followed by brief sonication. Homogenised samples were centrifuged (5000 rpm, 10 min, 4° C.) to remove TCA insoluble material. Supernatants were collected, and the remaining pellet re-extracted in 1.5 ml TCA, EDTA, phytate. Supernatants were pooled and freon, tri-n-ocylamine (1:1 v/v 0.75 ml:1 ml TCA solution) was added, mixed thoroughly, and phases separated by low speed centrifugation (2000 rpm, 10 min 4° C.). The resultant aqueous phase, containing inositol phosphates was collected and treated with proteinase K (50 μg/ml, 2 hr, 50° C.). This process was necessary to preserve the chromatography column. Treated samples were passed through a 1 ml Dowex-50 column (4% cross-linked 4-400 mesh size) and eluted with 1 ml water (22). Urea (0.05 M final) was added (23) and samples lyophilized prior to high performance liquid chromatography (HPLC) analysis. Recovery of inositol phosphates using this method was greater than 95% for each isomer, as estimated by addition of [^3 H]-labelled standards to extractions of unlabelled hearts.
Inositol phosphates were separated by an anion-exchange HPLC system using a Whatman Partisil 10μ SAX column in a Waters Radial Compression Unit, employing a complex ammonium phosphate gradient, pH 3.8 from 0-2 M as described previously (24). Inositol phosphates were detected and quantitated using an on-line […] (model CR, Radiomatic Instruments) All peaks were identified by comparison with commercial standards. Nucleotide standards AMP, ADP, and ATP were run with samples to assess column performance.

[3] = tested on: isolated neonatal cardiomyocytes; test: Inositol phosphate accumulation in isolated neonatal cardiomyocytes; type: cell-based
[4] = tested on: PI-PLC kidney cy; conditions: cytosolic enzyme; from the literature (35); cited from earlier work
[5] = tested on: Ins(1,4,5)P3 release; test: Ins(1,4,5)P3 mass in isolated perfused rat hearts, 2 min reperfusion after 20 min global ischaemia (competitive binding assay); conditions: for Ins(1,4,5)P3 mass: 2 min reperfusion after 20 min global ischaemia, control 200 ± 18
Procedure: as §6
(§8) Following labelling, the [^3 H]-inositol-containing medium was removed, and replaced with Krebs medium containing propranolol (10^-6 M) and lithium chloride (50 mM) to block β-adrenergic receptors and to inhibit InsP metabolism by InsP 1'-phosphatase respectively (20). Hearts were perfused with propranolol, LiCi solution for 10 minutes prior to ischaemia. Antagonists, when administered, were included in this 10 minute preincubation. Normothermic global ischaemia was induced by terminating perfusion for various times up to 30 minutes. Reperfusion was examined following a 20 minute ischaemic period by resuming perfusion at 5 ml/min. Reactions were terminated by freezing hearts in liquid N2 following excision at the atrioventricular junction. Frozen ventricles were weighed and inositol phosphates extracted as described below.
as §7
Mass of Ins(1,4,5)P3 was measured using a competitive binding assay (Amersham TRK 1000) essentially as described previously (26). Ventricle samples were prepared as described above except for the omission of [^3 H]-label during the 2 hr perfusion of hearts prior to ischaemia, and for the use of 5 mm ATP instead of phytate in the extraction procedure.
Protein concentration was determined in aliquots of TCA pellet following InsP extraction using a modified Lowry method with Bovine Serum Albumin as a standard.
Values presented are mean ±SEM, for n=4 unless otherwise stated. Statistical analysis of results involved Students' unpaired "t-test" for all InsP data.

[6] = tested on: PC-PLD brain; conditions: read-out: average EC50 PC-PLD brain; from the literature (35); cited from earlier work
[7] = tested on: PI-PLC kidney me; conditions: membrane enzyme; from the literature (35); cited from earlier work
[8] = tested on: PI-PLC heart rep; test: Inhibition of PI-PLC in hearts under reperfusion conditions; set-up: species or system rat
Procedure: as §6, §8
Mass of Ins(1,4,5)P3 was measured using a competitive binding assay (Amersham TRK 1000) essentially as described previously (26). […]

[9] = tested on: rats
Procedure: Rats were not heparinised so that effects of thrombin will be contributory to observed arrhythmias.
Rats were anaesthetised with pentobarbitone (60 mg/Kg IP) and artificially ventilated with room air. The chests were opened via the forth intercostal space, and the heart exposed. A 4.0 suture was placed around the left coronary artery and then passed through a guided polyethylene cannula. The thorax was closed leaving the threaded cannula outside the chest. The right carotid artery was cannulated for recording of arterial blood pressure. After stabilisation for 20-30 minutes, the left coronary artery was ligated by pulling the ends of the ligature through the tube and securing them by clamping the tube together with the threads. The ischaemic period was 10 minutes followed by reperfusion. Arterial blood pressure and a lead II ECG was recorded 3 minutes before and during ischaemia, and for the first 5 minutes of reperfusion. […] The size of the ischaemic area was determined at the end of the experiment by the dye method. […] Gentamicin was infused at a dose of 2.5-10 mg/Kg/min prior to initiation of ischaemia and maintained throughout the protocol.

[10] = tested on: hearts from reserpinized rats; test: Arrhythmic effect of thrombin under reperfusion conditions, perfused hearts from reserpinized rats; set-up: species or system rat; conditions: reserpinized hearts
Procedure: as §1, §2, §3, §4, §5
The finding that thrombin directly stimulated release of Ins(1,4,5)P3 in heart indicates the possibility that thrombin might cause arrhythmias directly via this mechanism. Experiments were performed using hearts from reserpinized rats so that arrhythmic events initiated by noradrenaline were eliminated. Reperfusion arrhythmias were not observed in hearts from reserpinized animals. […] Furthermore, these arrhythmias were inhibited by gentamicin, indicating a relationship to release of Ins(1,4,5)P3 (Table 2).

[11] = tested on: Ins(1,4,5)P3 release; test: Thrombin-stimulated release of Ins(1,4,5)P3 in heart tissue; conditions: at concentrations similar to those inhibiting the noradrenaline response under reperfusion

**Q.** For `COc1ccc2c(c1)CC[C@@H]1[C@@H]2CC[C@]2(C)[C@@H](NCCCCCCN3C(=O)C=CC3=O)CC[C@@H]12` [U-73122], which anti-arrhythmic activity [1] is on record?
**A.** without anti-arrhythmic activity

**Q.** And the VF% ([1]; 10^-6 M, n 12, control 63)?
**A.** 61%

**Q.** What about the VT% ([1]; 10^-6 M, n 12, control 100) of the same compound?
**A.** 88%

**Q.** What about the “release of Ins(1,4,5)P3 in intact heart preparations” value [2] of the same compound?
**A.** did not inhibit

**Q.** What about the “inhibition of accumulation of inositol phosphates” value ([2]; heart tissue under noradrenaline stimulation) of the same compound?
**A.** did not inhibit

**Q.** And the “inhibition of accumulation of inositol phosphates” value [3]?
**A.** fully effective inhibitor

**Q.** For `[H]/N=C(/N)N[C@H]1[C@H](O)[C@@H](O)[C@H](O[C@@H]2O[C@@H](C)[C@](O)(C=O)[C@H]2O[C@@H]2O[C@@H](CO)[C@H](O)[C@@H](O)[C@@H]2NC)[C@@H](N/C(N)=N\[H])[C@@H]1O` [streptomycin], which EC50 [4] is on record?
**A.** 380 µM

**Q.** And the “effect on reperfusion arrhythmias” value [1]?
**A.** inhibited

**Q.** And the “Reperfusion-induced arrhythmias VF % incidence” value ([1]; 0.015 mM)?
**A.** 27%

**Q.** And the “Reperfusion-induced arrhythmias VT % incidence” value ([1]; 0.015 mM)?
**A.** 45%

**Q.** What about the “Reperfusion-induced arrhythmias VF % incidence” value ([1]; 0.15 mM) of the same compound?
**A.** 6%

**Q.** What about the “Reperfusion-induced arrhythmias VT % incidence” value ([1]; 0.15 mM) of the same compound?
**A.** 25%

**Q.** And the “Reperfusion-induced arrhythmias VF % incidence” value ([1]; 1.5 mM)?
**A.** 27%

**Q.** What about the “Reperfusion-induced arrhythmias VT % incidence” value ([1]; 1.5 mM) of the same compound?
**A.** 45%

**Q.** And the “arrhythmias occurring during the ischaemic phase” value [1]?
**A.** partial inhibition

**Q.** What about the “potency of inhibition of reperfusion-induced Ins(1,4,5)P3 release relative to neomycin” value [5] of the same compound?
**A.** more potent inhibitors

**Q.** And the “Ins(1,4,5)P3 mass” value ([5]; 0.015 mM)?
**A.** 201 ± 16 pmol/mg protein

**Q.** What about the “Ins(1,4,5)P3 mass” value ([5]; 0.15 mM) of the same compound?
**A.** 167 ± 5 pmol/mg protein

**Q.** And the “Ins(1,4,5)P3 mass” value ([5]; 1.5 mM)?
**A.** 94 ± 11 pmol/mg protein

**Q.** What about the EC50 [6] of the same compound?
**A.** 125 µM

**Q.** What about the EC50 [7] of the same compound?
**A.** 2.85 mM

**Q.** And the EC50 [8]?
**A.** 150 µM

**Q.** What does the source list for gentamicin?
**A.** EC50 [4]: 130 µM; size of ischaemic area vs control animals ([9]; dye method, 2.5-10 mg/Kg/min): no difference; arrhythmias occurring under ischaemic conditions in vivo ([9]; infused 2.5-10 mg/Kg/min): effective; development of reperfusion arrhythmias in vivo ([9]; infused 2.5-10 mg/Kg/min): inhibited; VF% reperfusion arrhythmias in vivo ([9]; infused 2.5-10 mg/Kg/min, 10 min occlusion then reperfusion, n 10, control 68): 0%; VT% reperfusion arrhythmias in vivo ([9]; infused 2.5-10 mg/Kg/min, 10 min occlusion then reperfusion, n 10, control 100): 30%; thrombin-induced reperfusion arrhythmias [10]: inhibited; effect on reperfusion arrhythmias [1]: inhibited; rank of potency against reperfusion arrhythmias [1]: most potent agent tested; Reperfusion-induced arrhythmias VF % incidence ([1]; 0.015 mM): 25%; Reperfusion-induced arrhythmias VT % incidence ([1]; 0.015 mM): 58%; Reperfusion-induced arrhythmias VF % incidence ([1]; 0.15 mM): 27%; Reperfusion-induced arrhythmias VT % incidence ([1]; 0.15 mM): 27%; Reperfusion-induced arrhythmias VF % incidence ([1]; 1.5 mM): 8%; Reperfusion-induced arrhythmias VT % incidence ([1]; 1.5 mM): 17%; arrhythmias occurring during the ischaemic phase [1]: partial inhibition; potency of inhibition of reperfusion-induced Ins(1,4,5)P3 release relative to neomycin [5]: more potent inhibitors; Ins(1,4,5)P3 mass ([5]; 0.015 mM): 145 ± 2 pmol/mg protein; Ins(1,4,5)P3 mass ([5]; 0.15 mM): 136 ± 22 pmol/mg protein; Ins(1,4,5)P3 mass ([5]; 1.5 mM): 102 ± 17 pmol/mg protein; EC50 [7]: 0.5 mM; inhibition of thrombin-stimulated release of Ins(1,4,5)P3 [11]: inhibited; EC50 [8]: 15 µM
